The values below are quoted from earlier work in patent publication US20220134131A1, “ENERGY AUGMENTATION STRUCTURES FOR MEASURING AND THERAPEUTIC USES” (IMMUNOLIGHT, LLC, priority 2019, published 2022).

Each structure is given as a SMILES string.

The subject of this data set is HT-29 cells.

On to `OO` [H2O2, hydrogen peroxide], for which the “effect of application on HT-29 cells” value is on record as “caused their death”.
